Measured values published in patent US5866570A, “Treatment of vascular leakage and related syndrome such as septic shock by administration of metalloproteinase inhibitors” (Wisconsin Alumni Research Foundation, priority 1994, dated 1999).
Values after ≈ are worked out from the molar mass of the structure shown. Values joined by “and” are separate entries in the source; they are usually repeats but may differ in a detail not shown here. Equal entries are not always repeated. Where two headings read alike, the source gives them in different places.

How the values were obtained:
[1] = target: T1, recombinant human 72 kD type IV collagenase (Oncologix), APMA activated (Homo sapiens, UniProt P08253); test: gelatinase assay, Example 11; type: biochemical; conditions: 10 ng enzyme, 2 hours preincubation at 37° C., 20 min assay, 3H collagen substrate; read-out: IC50 for inhibition of the 72 kD collagenase type IV
T1 construct: purchased Oncologix
T1 sequence (P08253 110-660): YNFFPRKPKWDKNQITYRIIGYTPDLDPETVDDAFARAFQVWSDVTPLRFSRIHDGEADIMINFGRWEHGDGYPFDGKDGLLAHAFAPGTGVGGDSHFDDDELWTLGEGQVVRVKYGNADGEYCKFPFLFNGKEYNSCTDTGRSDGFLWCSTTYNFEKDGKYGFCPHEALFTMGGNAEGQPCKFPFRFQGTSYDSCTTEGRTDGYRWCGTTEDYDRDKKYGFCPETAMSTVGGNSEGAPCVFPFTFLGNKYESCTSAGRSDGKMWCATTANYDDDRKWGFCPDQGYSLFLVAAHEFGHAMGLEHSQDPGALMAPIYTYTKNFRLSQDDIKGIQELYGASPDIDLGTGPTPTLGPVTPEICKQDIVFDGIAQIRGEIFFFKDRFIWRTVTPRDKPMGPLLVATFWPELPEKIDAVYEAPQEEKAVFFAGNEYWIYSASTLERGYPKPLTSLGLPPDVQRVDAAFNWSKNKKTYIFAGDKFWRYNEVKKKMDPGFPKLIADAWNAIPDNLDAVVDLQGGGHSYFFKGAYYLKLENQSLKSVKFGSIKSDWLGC
Method: NET-660 Collagen (Rat Type I), N-[Propionate-2-3-^3 H] Propionylated (NEN Dupont) with a specific activity of 0.4 mCi/mg, rat type I Collagen (Sigma), P-aminophenylmercuric acetate, APMA (Sigma), recombinant human 72 kD type IV collagenase (Oncologix) with a specific activity of at least 1000 μg collagen digested/hour/μg enzyme, collagenase buffer (50 mM Tris-HCl, 5 mM CaCl2, 200 mM NaCl, 0.02% Brij-35, pH 7.6), bovine serum albumin (BSA), 250 mM EDTA, and 10% TCA+0.7% tannic acid. The substrate is prepared by mixing the ^3 H collagen with the cold collagen at a 2/3 ratio and diluting in the collagenase buffer. The final assay concentration of the ^3 H collagen is 1% or between 20,000 to 40,000 cpm. Inhibitors are prepared just prior to use by dissolving in DMSO (final assay concentration<1%) or collagenase buffer.
The 72 kD collagenase enzyme is activated with 0.5 mM APMA for 30 min. at 37° C. and 10 ng of enzyme per assay is used. Inhibitors are preincubated with activated enzyme for 2 hours at 37° C. in collagenase buffer. Substrate is then added to enzyme inhibitor mix and the assay is run for 20 min at 37° C. […] Undigested substrate is precipitated with the TCA/tannic acid solution and soluble counts are determined in a scintillation counter.

Lewis lung LL carcinoma = conditions: cited from earlier work
mouse-embryo fibroblasts = conditions: cited from earlier work
S180 tumors = conditions: therapeutic index in vivo; cited from earlier work
mouse L cell = conditions: l cells; read-out: ID50 inhibition of colony formation; cited from earlier work
[2] = at 25° C.; cited from earlier work
[3] = tested on: LS-MET-5 human colon carcinoma cells; test: LS-MET-5 i.v. human colon carcinoma metastasis model in nude mice; type: in vivo
Method: This example evaluates the effect of probimane on the survival of mice which have been injected with LS-MET-5 human colon carcinoma cells. In particular, probimane was given at 26 mg/kg in CMC, 1 intraperitoneal dose/day starting 1 day prior to intravenous injection of 1 million LS-MET-5 human colon carcinoma cells, at either 3 or 5 doses per week. During the first week the treated mice experienced a small weight drop and the dosage was decreased to 10.4 mg/kg. The control mice received CMC only at 10 μl/g.
Dose and Schedule--was suspended in sterile 1% CMC (carboxymethyl cellulose) […] by sonication in a water bath. […] Mice received drug 24 hours prior to injection of cells and each mouse received one dose/day i.p. for 5 consecutive days with 2 days of recovery or 3 consecutive days with 4 days of recovery. Treatment continued until mouse death or sacrifice.
LS-MET-5--human colon carcinoma metastatic variant cell line was developed at Oncologix, Inc. The cells are maintained in culture in DMEM+10% FBS and are dissociated for injection with trypsin/versine. The cells are resuspended in HBSS and 1 million cells injected in 100 μl into the lateral tail vein of the mouse.
Mice--HSD nu/nu female mice 6 weeks old (18-22 g) are weighed, tagged with a metal ear clip, and radomized for treatment or control groups. Mice are weighed daily and the dose of drug or vehicle is calculated.
Superficial metastases in the regional lymph nodes, dorsal thoracic brown fact pad, thigh muscle and on the rib cage begin appearing around day 22. Tumor growth is rapid with small metastases quickly coalescing to form a solid collar of metastases around the neck region of the mouse.
Although we have improved the incidence of mice with metastases by eliminating mice with less than perfect initial i.v. injections, we are still only 90% incidence. The experiment is terminated when the last mouse with evidence of metastases dies. The remaining mice are necropsied for presence of micro-metastases. We have found evidence that cells were indeed injected iv.

[4] = postamputation schedule LL model

Compound: O=C(O)CN(CCN(CC(=O)O)CC(=O)O)CC(=O)O [EDTA, ethylenediaminetetraacetic acid]
- IC50 [1]: 300 µM

Compound: O=C1CN2C[C@@H]3C(=O)N(CN4CCOCC4)C(=O)CN3C[C@@H]2C(=O)N1CN1CCOCC1 (relative stereo) [morpholinomethyl derivative of cis-23]
- antimetastatic effect (Lewis lung LL carcinoma; implanted LL carcinoma): inhibits metastasis

Compound: O=C1CN(CCCN2CC(=O)NC(=O)C2)CC(=O)N1 [ICRF-161]
- IC50, inhibition of [3H]thymidine incorporation (mouse-embryo fibroblasts): inactive

Compound: CC(C(C)N1CC(=O)NC(=O)C1)N1CC(=O)NC(=O)C1 (centres unmarked) [ICRF-193]
- calculated ratio of maximum tolerated dose to the dose required for 90% inhibition of S180 tumor growth (S180 tumors): 6.7
- IC50 (mouse L cell): 0.09 µM
- IC50, inhibition of [3H]thymidine incorporation (mouse-embryo fibroblasts): 0.035 mg/L

Compound: CCC(CN1CC(=O)NC(=O)C1)N1CC(=O)NC(=O)C1 (centres unmarked) [ICRF-192]
- IC50 (mouse L cell): 720 µM

Compound: O=C1CN([C@@H]2C[C@@H](O)[C@@H](O)C[C@@H]2N2CC(=O)NC(=O)C2)CC(=O)N1 [Compound 89, (1β, 2β, 4α, 5α)-4,4'-(4,5-dihydroxy-1,2-cyclohexanediyl)bis(2,6-piperazinedione)]
- solubility in water [2]: 29.3 mg/mL (≈ 86.1 mM)

Compound: CC(CN1CC(=O)N(CN2CCOCC2)C(=O)C1)N1CC(=O)N(CN2CCOCC2)C(=O)C1 (centres unmarked) [Probimane, probimane]
- toxicity (body weight) ([3]; 26 mg/Kg i.p. during the first week): weight drop indicated toxicity
- Mean IST ([3]; 3×/Week): 19%
- Mean Survival ([3]; 3×/Week): 52
- Median IST ([3]; 3×/Week): 18%
- Median Survival ([3]; 3×/Week): 47
- Day of Death ([3]; 3×/Week, 26 then 10.4 mg/kg i.p., single mice): 43 and 44 and 45 and 46 and 52 and 62 and 63
- Mean IST ([3]; 5×/Week): 16%
- Mean Survival ([3]; 5×/Week): 50
- Median IST ([3]; 5×/Week): 18%
- Median Survival ([3]; 5×/Week): 47
- Incidence of superficial metastases ([3]; Day 29, 3×/Week): 7/11
- superficial Mets/Mouse ([3]; Day 29, 3×/Week): 1.1
- Incidence of superficial metastases ([3]; Day 29, 5×/Week): 5/11
- superficial Mets/Mouse ([3]; Day 29, 5×/Week): 1.2
- Incidence of superficial metastases ([3]; Day 30, 3×/Week): 7/11
- superficial Mets/Mouse ([3]; Day 30, 3×/Week): 1.9
- Incidence of superficial metastases ([3]; Day 30, 5×/Week): 10/11
- superficial Mets/Mouse ([3]; Day 30, 5×/Week): 1.2
- Incidence of superficial metastases ([3]; Day 31, 3×/Week): 7/11
- superficial Mets/Mouse ([3]; Day 31, 3×/Week): 1.9
- Incidence of superficial metastases ([3]; Day 31, 5×/Week): 11/11
- superficial Mets/Mouse ([3]; Day 31, 5×/Week): 1.1
- Incidence of superficial metastases ([3]; Day 32, 3×/Week): 7/11
- superficial Mets/Mouse ([3]; Day 32, 3×/Week): 1.9
- Incidence of superficial metastases ([3]; Day 32, 5×/Week): 11/11
- superficial Mets/Mouse ([3]; Day 32, 5×/Week): 1.8
- condition of the treated mice ([3]; mouse, in vivo): pale and grayish in color, with scruffy coats, and were cold to the touch

Compound: O=C1CN2CCN3CC(=O)N(CN4CCOCC4)C(=O)[C@H]3[C@@H]2C(=O)N1CN1CCOCC1 (relative stereo)
- antimetastatic effect (Lewis lung LL carcinoma; [4]): considerable antimetastatic activity

Compound: CC(C(C)N1CC(=O)NC(=O)C1)N1CC(=O)NC(=O)C1 (centres unmarked) [ICRF-196]
- IC50 (mouse L cell): 150 µM
- IC50, inhibition of [3H]thymidine incorporation (mouse-embryo fibroblasts): inactive

Compound: O=C1CN2C[C@H]3C(=O)NC(=O)CN3C[C@@H]2C(=O)N1 [Compound 22]
- antimetastatic effect (Lewis lung LL carcinoma; implanted LL carcinoma): no antimetastatic effects

Compound: O=C1CN(CCN2CC(=O)NC(=O)C2)CC(=O)N1 [ICRF-154]
- IC50 (mouse L cell): 7.3 µM
- IC50, inhibition of [3H]thymidine incorporation (mouse-embryo fibroblasts): 2.0 mg/L

Compound: O=C1CN2C[C@@H]3C(=O)NC(=O)CN3C[C@@H]2C(=O)N1 (relative stereo) [Compound 23]
- antimetastatic effect (Lewis lung LL carcinoma; implanted LL carcinoma): no antimetastatic effects
- antimetastatic effect (Lewis lung LL carcinoma; implanted LL carcinoma, listed as cis-23): does not exhibit any appreciable antimetastatic effect

Compound: O=C1CN2CCN3CC(=O)N(CN4CCOCC4)C(=O)[C@H]3[C@H]2C(=O)N1CN1CCOCC1
- antimetastatic effect (Lewis lung LL carcinoma; [4]): most effective inhibitor of metastasis
